We go through eight molecules from patent US20220117867A1, “ANTIMICROBIAL ACTIVITY OF FATTY ACID ESTERS AND COMBINATIONS THEREOF” (SYMRISE AG, priority 2019, published 2022).

Holding throughout (format): cell-based
For one assay, the system named is Epidermophyton floccosum. Description: Minimum Inhibitory Concentration (MIC) Method B, DIN 58940; Synergy Index according to Kull. Conditions: single substance. As to the method: (§1) B) Minimum Inhibitory Concentration (MIC) Method B
(§2) 5 ml of the appropriate dilution of the test product is mixed with 0.1 ml of test suspension and mixed well. After the required action times, the mixture was mixed again. Each 0.1 ml were removed and placed in 5 ml of CSL-bouillon without neutralizing agents.
(§3) In order to calculate the synergy index with MIC values, the Kull equation (I) was used as follows:
(§4) SI=(MICmixture×PA)/MICA+(MICmixture×PB)/MICB (I)
SI is the Synergy Index according to Kull
MICA is the MIC value for Substance A
MICB is the MIC value for Substance B
MICmixture is the MIC value for the mixture of substances A and B
PA is the proportion of the substance A in the mixture
PB is the proportion of the substance B in the mixture

In assay [1] the test system is Corynebacterium xerosis. As to the kind of experiment: Minimum Inhibitory Concentration (MIC) Method A. As to the method: A) Minimum Inhibitory Concentration (MIC) Method A The MIC test is a test on growth inhibition. Estimation of Minimum Inhibitory Concentration (MIC) is executed in 96 well plates. Through the comparison of bacterial growth curves with positive and negative controls via optical density (OD), different concentrations of given test substances are evaluated. Bacteria are cultivated under adjusted conditions based on information of the German Collection of Microorganisms and Cell Cultures (DSMZ) and stored in 50% Glycerol prior to use. Afterwards, the following method was applied: Adding growth medium (according to microorganism) to each well of the microplate. Adding the test-substances in different concentrations, positive controls (water controls only with medium) and negative controls (benchmarks according to organism). Adding the microorganism in a concentration of 10^6 CFU/ml (CFU=colony forming units). Incubation of the microplates at appropriate conditions. Aerobic microorganism: optical density is continuously measured (microplate reader) during incubation. Anaerobic microorganism: incubation in an anaerobic chamber, measurement of the optical density at the end of the incubation, comparison of the results with positive and negative controls. According to resulting growth curves, substance concentrations are labelled either as inhibiting or normal growth and MIC is defined as the lowest concentration where a clear inhibition is visible. Experiments at concentration limits (highest concentration labelled as growth and lowest concentration labelled as inhibiting) are performed at least twice.

Assay [2] relates to Staphylococcus epidermidis. Description: Minimum Inhibitory Concentration (MIC) Method A. As to the method: (§5) A) Minimum Inhibitory Concentration (MIC) Method A
(§6) The MIC test is a test on growth inhibition. Estimation of Minimum Inhibitory Concentration (MIC) is executed in 96 well plates. Through the comparison of bacterial growth curves with positive and negative controls via optical density (OD), different concentrations of given test substances are evaluated.
(§7) Bacteria are cultivated under adjusted conditions based on information of the German Collection of Microorganisms and Cell Cultures (DSMZ) and stored in 50% Glycerol prior to use. Afterwards, the following method was applied:
(§8) Adding growth medium (according to microorganism) to each well of the microplate.
(§9) Adding the test-substances in different concentrations, positive controls (water controls only with medium) and negative controls (benchmarks according to organism).
(§10) Adding the microorganism in a concentration of 10^6 CFU/ml (CFU=colony forming units). Incubation of the microplates at appropriate conditions.
(§11) Aerobic microorganism: optical density is continuously measured (microplate reader) during incubation.
(§12) According to resulting growth curves, substance concentrations are labelled either as inhibiting or normal growth and MIC is defined as the lowest concentration where a clear inhibition is visible. Experiments at concentration limits (highest concentration labelled as growth and lowest concentration labelled as inhibiting) are performed at least twice.

Another assay relates to Staphylococcus aureus. Description: Minimum Inhibitory Concentration (MIC) Method A. As to the method: as §5, §6, §7, §8, §9, §10, §11, §12
The subject of assay [3] is Aspergillus brasiliensis. Description: Minimum Inhibitory Concentration (MIC) Method A. As to the method:
as §5, §6, §7, §8, §9, §10, §11, §12

Assay [4] has as its system Corynebacterium xerosis. As to the kind of experiment: Minimum Inhibitory Concentration (MIC) Method B, DIN 58940; Synergy Index according to Kull. The conditions noted are these: Method B (Examples 3, 5, 6), C. xerosis, single substance. As to the method: as §1, §2, §3, §4
In assay [5] the test system is Escherichia coli. As to the kind of experiment: Minimum Inhibitory Concentration (MIC) Method A. As to the method: as §5, §6, §7, §8, §9, §10, §11, §12
Assay [6] concerns Escherichia coli. As to the kind of experiment: Minimum Inhibitory Concentration (MIC) Method B, DIN 58940; Synergy Index according to Kull. The conditions noted are these: Method B (Example 5), E. coli, single substance. As to the method: as §1
(§13) Test conditions: Evaluation of bactericidal and fungicidal activity in qualitative suspension test (VAH-standard methods, 04-2015). 5 ml of the appropriate dilution of the test product is mixed with 0.1 ml of test suspension and mixed well. After the required action times, the mixture was mixed again. Each 0.1 ml were removed and placed in 5 ml of CSL-bouillon without neutralizing agents.
as §3, §4
(§14) The synergistic activity of 3-hydroxypropyl caprylate and glyceryl caprylate on several bacterial and fungal reference strains for application in either Deodorant application or as preservative was determined by measuring minimum inhibitory concentrations (MIC values) according to DIN 58940 and method B (method section above).

In assay [7] the test system is Aspergillus brasiliensis. The description is as above. Conditions: Method B (Example 5), A. brasiliensis, single substance. As to the method:
as §1, §13, §3, §4, §14

A further assay concerns Staphylococcus hominis. The description is as above. The conditions noted are these: Method B (Example 5), S. hominis, single substance. As to the method:
as §1, §13, §3, §4, §14

Structures are written as SMILES. Converted amounts (≈) assume the structure as drawn. Read-outs that look alike come from different tables or passages of the source.

As for `CCCCC(O)CO` (stereo not shown) [1,2 Hexanediol], in the assay with Epidermophyton floccosum, the MIC was 10000 µg/mL.
For `C=CCCCCCCCCC(=O)OCCCO` [3-hydroxypropyl undecylenate], the MIC is 250 µg/mL (≈ 1030 µM) with Corynebacterium xerosis [1] (read-out: MIC), 64 µg/mL (≈ 264 µM) in [2] (read-out: MIC), 500 µg/mL (≈ 2060 µM) in the assay with Staphylococcus aureus (read-out: MIC) and 500 µg/mL (≈ 2060 µM) with Aspergillus brasiliensis [3] (read-out: MIC).
Take `CCCCCCC(O)CO` (stereo not shown) [Caprylyl Glycol, 1,2-Octanediol]: the MIC in the assay with Corynebacterium xerosis [4] was 2500 µg/mL; in the assay with Epidermophyton floccosum, 5000 µg/mL.
For `CC(C)(O)CCc1ccccc1` [Dimethyl Phenylbutanol, reference compound], the MIC in [2] was 1000 ppm; against Staphylococcus aureus, 1000 ppm; in the assay with Escherichia coli [5], 2500 ppm; in the assay on Aspergillus brasiliensis [3], 2500 ppm.
As to `CC(C)=CCCC(C)=CCCC(C)=CCO` [Farnesol], the MIC in the assay on Corynebacterium xerosis [4] stood at 16 µg/mL.
For `CCCC(O)CO` (stereo not shown) [Pentylene Glycol, 1,2-Pentanediol], the MIC with Epidermophyton floccosum worked out at 15000 µg/mL.
Turning to `CCCCCCCC(=O)OCC(O)CO` (stereo not shown) [glyceryl caprylate, reference compound], the MIC in the assay on Corynebacterium xerosis [4] came out at 1000 µg/mL; with Escherichia coli [6] it was 2500 µg/mL; in the assay with Aspergillus brasiliensis [7] it was 2500 µg/mL; in the assay with Staphylococcus hominis it was 1000 µg/mL.
`C=CCCCCCCCCC(=O)OCC(O)CO` (stereo not shown) [glyceryl monoundecylenate]: the values for the MIC entry against Corynebacterium xerosis [1] and with Corynebacterium xerosis [1] (read-out: MIC) were “low” and 250 µg/mL (≈ 968 µM), respectively.
